Measured values from patent US20090221538A1, “METHODS OF TREATING MULTIPLE SCLEROSIS BY ADMINISTERING PULSE DOSE CALCITRIOL” (priority 2008, published 2009).

Experiments:
[1] = system: B10.PL mice with acute EAE; experiment: Treatment of MBP-induced acute EAE in B10.PL mice, daily clinical EAE disability score; type: in vivo; parameters: key to cumulative disability (sum of daily disability scores; mean) / Cumulative disability / EAE severity (initial) / Remission (minimum) / EAE severity (final) / EAE severity (decrease): EAE score 0 = normal to 5 = moribund; cumulative = sum of daily scores
Method: Breeding pairs of B10.PL-H2^uH2-T18^a/(73NS)/SnJ (hereafter B10.PL) mice were purchased from the Jackson Laboratory (Bar Harbor, Me.). The experimental B10.PL mice were either bred in the pathogen-free mouse colony at the University of Wisconsin Department of Biochemistry, or purchased from the Jackson Laboratory. Mice were housed at 23° C. with 40-60% humidity, 12 hr light-dark cycles, and ad libidum access to water. Unless stated otherwise, the mice were fed Lab Diet #5008 (PMI Nutrition International, Inc., Brentwood, Mo.) containing 0.33 μg/d vitamin D3 and 1% calcium. Experiments used male and female mice aged 6-8 wks (age- and sex-matched within experiments). The University of Wisconsin College of Agricultural and Life Sciences Institutional Animal Care and Use Committee approved all of the experimental protocols.
Bovine myelin basic protein (Sigma Chemical Co., St. Louis, Mo.) was dissolved at 2 mg/mL in 0.1 N acetic acid and emulsified with Complete Freund's adjuvant containing heat-killed Mycobacterium tuberculosis H37 Ra solution (Difco). Each mouse was injected subcutaneously with 0.1 mL emulsion in each hind flank (400 micrograms of MBP per mouse). On the day of immunization and again 2 days later, 200 nanograms of pertussis toxin was injected into the peritoneum. Thereafter, clinical EAE signs were scored daily as follows: 0, normal; 1, limp tail; 1.5, partial paralysis of one hind limb; 2, partial paralysis of both hind limbs; 2.5 partial paralysis of one hind limb and complete paralysis of one hind limb; 3, paralysis of both hind limbs; 4, hind and fore limb paralysis; 5, moribund.
The vitamin D3 and 1,25-(OH)2D3 were obtained from Sigma Chemical Co. The vitamin D3 was dissolved in safflower oil and stored in the dark at 5° C. The 1,25-(OH)2D3 was dissolved in 100% ethanol (1 mg/mL) and stored in the dark under nitrogen gas at −20° C. The concentration of 1,25-(OH)2D3 was determined by spectral analysis. Animals with stage 2.3±0.3 were randomized into treatment groups. The details of the treatments are given in the figure legends and table footnotes. The synthetic diet used in some experiments was formulated to contain all essential nutrients except vitamin D3 and was prepared exactly as we described (Spach and Hayes, 2005, J. Immunol. 175:4119-4126). For experiments using supplementary vitamin D3, the placebo group was fed the synthetic diet ad libidum without added vitamin D3, whereas the vitamin D3-supplemented group was fed the synthetic diet ad libidum with vitamin D3 added in an amount to provide 1 μg/d, calculated based on a daily measured consumption of 4.0 g dry weight of diet per mouse. Fresh synthetic diet was provided three times per week. At several times during the study, mice were weighed and blood samples were obtained from the tail vein. At the conclusion of the study, the mice were euthanized, a blood sample was obtained, perfusion was done, and the spinal cords and optic nerves were removed. The spinal cords were flash frozen with liquid nitrogen and stored at −70° C. prior to 1,25-(OH)2D3 extraction. Alternatively, the spinal cords were divided into 6 equal sections, aligned vertically, snap frozen in O.C.T. compound (Sakura Finetek USA, Torrance, Calif.) and stored at −70° C. for histopathology. The blood was clotted, centrifuged, and the decanted serum was frozen at −70° C. prior to analysis.
Individual mice were analyzed and the mean and SD were calculated for each group of mice. Experiments were repeated at least once. The significance of differences between the group means was determined using the Mann-Whitney test (n≦16), Student's t-test (n>16), or Chi-squared test (binomial data); p<0.05 was considered significant.

[2] = Serum calcium analysis; type: in vivo, mouse; conditions: mice with EAE, 1 μg/day vitamin D3, end of the 28 day study
Method: Blood was collected, clotted, and centrifuged (2,000×g for 10 min) at 6° C. The serum was decanted and stored at −20° C. The samples, standards, and buffer blanks (2 μL each) were aliquoted into duplicate wells of a 96-well plate. The calcium detection reagent was prepared according to the manufacturer's directions (Sigma Diagnostics. St. Louis, Mo.), and 0.25 mL was added to each well. The absorbance at 570 nm less the blank was measured 10 to 30 min later. The Ca^++ mmol/L serum was determined from a standard curve.

[3] = Serum 25-(OH)D3 radioimmunoassay; conditions: mice with EAE (score 1.5±0.5), 1 μg/day vitamin D3, end of the 28 day study
Method: The serum was extracted and the 25-(OH)D3 (DiaSorin, Stillwater, Minn.) and calcitriol (Nichols Institute Diagnostics, San Juan Capistrano, Calif.) concentrations were determined in duplicate with radioimmunoassay kits according to the manufacturer's protocols.

[4] = system: MS; conditions: cited from earlier work
[5] = female and male B10.PL mice, chow-fed, 0.5 (female) or 1.0 (male) nmol injected once, 14 days post treatment

## C[C@H]1C[C@@H]2[C@H]([C@@H](O)C[C@@]3(C)[C@H]2CC[C@]3(O)C(=O)CO)[C@@]2(C)C=CC(=O)C=C12 [Methyl-prednisolone]
[1]; chow-fed male and female mice with EAE (score 2.3±0.4), 200 μg/d oral methyl-prednisolone
  mice in which remission was induced: 100%
[1]; chow-fed male and female mice with EAE, 200 μg/d oral methyl-prednisolone
  time to remission: 6 ± 2 days
[1]; [5]
  Cumulative disability: 24.8 ± 6.9
  EAE severity (decrease): 0.8 ± 0.7
  Remission (%): 40%
  Remission (days in): 3.0 ± 4.1 days
  Remission (days to): 3.0 ± 0.0 days
[1]; female and male B10.PL mice, chow-fed, 0.5 (female) or 1.0 (male) nmol of steroid compound injected once, score at randomization
  EAE severity (initial): 2.0 ± 0.0

## C=C1CC[C@H](O)C/C1=C/C=C1\CCC[C@]2(C)[C@@H]([C@H](C)CCCC(C)C)CC[C@@H]12 [vitamin D3]
[1]; 1 μg/day vitamin D3, 28 day study
  effect on clinical disability in mice with EAE: no effect
[1]; mice with EAE, 1 μg/day vitamin D3, 28 day study, both groups
  cumulative disability (sum of daily disability scores; mean): 71±18
[1]; mice with EAE, 1 μg/day vitamin D3, 28 day study, both groups (supplemented and un-supplemented)
  mortality: 9-14%
[2]
  serum calcium levels: 9.6 ± 1.5 mg/dL
[3]
  serum 25-(OH)D3: 8217 nmol/L

## Natalizumab: an integrin-specific monoclonal antibody (mAb)
[4]; human, in vivo
  adverse risks: increased the risk of cardiac problems and fatal progressive multifocal leukoencephalopathy
[4]; over two years
  slowing of disability progression: ~42%

## glatiramer acetate
[4]; RRMS, PPMS or SPMS patients
  disability progression: did not slow disability progression
[4]; some relapsing-remitting MS (RRMS)
  reduction of the relapse rate: ~35%
